According to paper PMC8842630, “Imidazoline- and Benzamidine-Based Trypanosome Alternative Oxidase Inhibitors: Synthesis and Structure–Activity Relationship Studies” (ACS Medicinal Chemistry Letters, 2022):
Where “and” joins values, the source holds several entries; their conditions need not be identical. Identical values can stand only once.

Assays:
[1] = system: Bloodstream form trypomastigotes of T. b. brucei strain 427 (WT); test: Resazurin-based susceptibility assay, wild-type T. b. brucei; type: cell-based; details: for EC50: BSF trypomastigotes strain 427, n = 3; for trypanocidal activity against T. brucei (in words): compounds with short linkers (C-3)
Experimental: . […] This finding was in agreement with previous reports on TAO inhibitors showing that a decrease in efficacy against T. b. brucei growth inhibition was observed as chain length decreased.[8],[9],[23]
(§1) BSF trypanosomes of monomorphic strains Lister 427 (WT), multi-drug-resistant clone B48, and the AQP1-3 KO, which lacks all aquaglyceroporins,[26] were grown in complete HMI-9 with 10% fetal bovine serum, exactly as described, and tested using a standard resazurin-based assay with 23 doubling dilutions for each compound starting at 100 μM.[27] Human embryonic kidney (HEK) cells were cultured and assayed with a resazurin-based assay exactly as described previously.[9] EC50 values were calculated by nonlinear regression with an equation for a sigmoid curve with variable slope (Prism 8.0, GraphPad).

[2] = system: T. b. brucei strain resistant to pentamidine (B48); test: microbe, parasite or virus in culture; type: cell-based; details: for EC50: Trypanosoma brucei, read-out: T. b. brucei EC50 B48
[3] = in vitro; details: human
[4] = system: T. brucei cell line from which all aquaporins were knocked out (AQP1-3 KO); test: microbe, parasite or virus in culture; type: cell-based, T. b. brucei; details: for EC50: Trypanosoma brucei, read-out: T. b. brucei EC50 AQP1-3 KO; for RF (resistance factor relative to WT), AQP1-3 KO: EC50 AQP1-3 KO / EC50 WT
Experimental: as §1

[5] = system: human embryonic kidney (HEK) cells; details: HEK CC50 / T. b. brucei WT EC50
[6] = biological target: Purified recombinant trypanosome alternative oxidase (ΔMTS-TAO) (Trypanosoma brucei brucei, UniProt Q26710); test: Inhibition of ubiquinol oxidase activity of purified ΔMTS-TAO; details: for IC50: rTAO IC50, purified ΔMTS-TAO, n = 3; for inhibition at 40 µM: read-out: rTAO % inhibition at 40 μM; for inhibition at 10 µM: read-out: rTAO % inhibition (compound tested at 10 μM)
Purified recombinant trypanosome alternative oxidase (ΔMTS-TAO), sequence (Q26710 26-329, stated change not applied): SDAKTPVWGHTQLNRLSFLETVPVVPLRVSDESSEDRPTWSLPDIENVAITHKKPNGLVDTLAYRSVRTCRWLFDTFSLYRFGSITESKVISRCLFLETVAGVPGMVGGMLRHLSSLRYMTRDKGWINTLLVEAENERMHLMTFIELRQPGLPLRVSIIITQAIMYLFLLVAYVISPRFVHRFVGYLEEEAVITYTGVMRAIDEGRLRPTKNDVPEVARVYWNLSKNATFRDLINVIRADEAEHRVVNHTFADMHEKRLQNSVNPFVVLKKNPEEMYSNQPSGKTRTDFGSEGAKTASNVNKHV

For `CC(=O)O.Cc1cc(O)cc(O)c1C(=O)NCCCOc1ccc(C(=N)N)cc1` [1a], the EC50 ([1]; Trypanosoma brucei) was greater than 100 µM, the “trypanocidal activity against T. brucei (in words)” value (from here on “trypanocidal activity”) [1] was “inactive” and the EC50 [2] was greater than 100 µM. It also gave a CC50 [3] greater than 200 µM.

For `CC(=O)O.Cc1cc(O)cc(O)c1C(=O)NCCCCCCOc1ccc(C(=N)N)cc1` [1b], the EC50 ([1]; Trypanosoma brucei) was 15.5 ± 0.6 µM, the EC50 [2] was 28 ± 0.5 µM and the EC50 [4] was 17.4 ± 0.9 µM. For the same compound, the “SI (selectivity index) = CC50/EC50 (WT)” value [5] was greater than 12.9, the CC50 [3] was greater than 200 µM and the IC50 [6] was greater than 40 µM. The inhibition at 40 µM [6] was 12.5%.

For `CC(=O)O.Cc1cc(O)cc(O)c1C(=O)NCCCCCCCCCCCCOc1ccc(C(=N)N)cc1` [1c], the EC50 [1] was 3.3 ± 0.2 µM, the EC50 ([1]; Trypanosoma brucei) was less than 4 µM and the EC50 [2] was 3.6 ± 0.1 µM. For the same compound, the “SI (selectivity index) = CC50/EC50 (WT)” value [5] was 13.2, the CC50 [3] was 43.5 ± 5.4 µM and the IC50 [6] was greater than 40 µM. The inhibition at 40 µM [6] was 39.3%.

With `Cc1cc(O)cc(O)c1C(=O)NCCCCCCCCCCCCCCOc1ccc(C(=N)N)cc1` [1d] the EC50 ([1]; Trypanosoma brucei) was 18.6 ± 1.1 µM, the EC50 [2] was 28.9 ± 5.2 µM and the CC50 [3] was greater than 200 µM. The IC50 [6] was greater than 40 µM and the inhibition at 40 µM [6] was 31.4%.

With `CC(=O)O.Cc1cc(O)cc(O)c1C(=O)NCCCCCCCCCCCCOc1ccc(C2=NCCN2)cc1` [2c] the EC50 [4] was 2.9 ± 0.4 µM, the “SI (selectivity index) = CC50/EC50 (WT)” value [5] was 39.1 and the CC50 [3] was 67.2 ± 0.8 µM. For the same compound, the IC50 [6] was greater than 10 µM and the inhibition at 10 µM [6] was 10%.

Compound `CC(=O)O.Cc1cc(O)cc(O)c1C(=O)NCCCCCCCCCCCCOc1ccc(N=C2NCCN2)cc1` [3c] has an EC50 [1] of 2.7 ± 0.4 µM, an EC50 ([1]; Trypanosoma brucei) of less than 4 µM and an EC50 [4] of 3.92 ± 0.03 µM. For the same compound, the melting point was 44.5 to 51.1 °C, the “SI (selectivity index) = CC50/EC50 (WT)” value [5] was greater than 36.5 and the CC50 [3] was greater than 100 µM. It also gave an IC50 [6] of 22.5 ± 0.3 µM and an inhibition at 10 µM [6] of 46.3%.

With `Cc1cc(O)cc(O)c1C(=O)NCCCOc1ccc(C#N)cc1` [7a] the EC50 ([1]; Trypanosoma brucei) was 37.2 ± 3.4 µM, the “trypanocidal activity” value [1] was “poorly active” and the EC50 [2] was 50.8 ± 2.7 µM. The “SI (selectivity index) = CC50/EC50 (WT)” value [5] was greater than 5.3, the CC50 [3] was greater than 200 µM and the IC50 [6] was greater than 40 µM. The inhibition at 40 µM [6] was 28.8%.

Work on `Cc1cc(O)cc(O)c1C(=O)NCCCCCCOc1ccc(C#N)cc1` [7b] yielded an EC50 ([1]; Trypanosoma brucei) of 30.4 ± 0.4 µM, an EC50 [2] of 27.7 ± 2 µM and an EC50 [4] of 30.5 ± 0.7 µM. For the same compound, the CC50 [3] was greater than 200 µM, the IC50 [6] was 1.52 µM and 1.5 µM and the inhibition at 40 µM [6] was 96.2%.

With `Cc1cc(O)cc(O)c1C(=O)NCCCCCCCCCCCCOc1ccc(C#N)cc1` [7c] the EC50 ([1]; Trypanosoma brucei) was 15.6 ± 0.7 µM, the EC50 [2] was 15.9 ± 0.7 µM and the melting point was 81.9 °C. The “SI (selectivity index) = CC50/EC50 (WT)” value [5] was 3.7, the CC50 [3] was 57.1 ± 0.1 µM and the IC50 [6] was greater than 40 µM. The inhibition at 40 µM [6] was 27.4%.

In the case of `Cc1cc(O)cc(O)c1C(=O)NCCCCCCCCCCCCCCOc1ccc(C#N)cc1` [7d], the EC50 ([1]; Trypanosoma brucei) is reported as 14.8 ± 0.5 µM, the EC50 [2] is reported as 15.7 ± 0.5 µM and the “SI (selectivity index) = CC50/EC50 (WT)” value [5] is reported as 3.8. It also gave a CC50 [3] of 56.8 ± 0.2 µM, an IC50 [6] of 16.4 ± 0.7 µM and an inhibition at 40 µM [6] of 89.7%.

In the case of `Cc1cc(O)cc(O)c1C(=O)NCCCOc1ccc(C(=N)NO)cc1` [8a], the EC50 ([1]; Trypanosoma brucei) is reported as greater than 100 µM, the “trypanocidal activity” value [1] is reported as “inactive” and the EC50 [2] is reported as greater than 100 µM. For the same compound, the CC50 [3] was greater than 200 µM, the IC50 [6] was greater than 40 µM and the inhibition at 40 µM [6] was 14.1%.

For `Cc1cc(O)cc(O)c1C(=O)NCCCCCCOc1ccc(C(=N)NO)cc1` [8b], the EC50 ([1]; Trypanosoma brucei) was 19.5 ± 1 µM, the EC50 [2] was 36 ± 1.8 µM and the EC50 [4] was 21 ± 1 µM. For the same compound, the “SI (selectivity index) = CC50/EC50 (WT)” value [5] was 3.9, the CC50 [3] was 76.8 ± 7.2 µM and the IC50 [6] was greater than 40 µM. It also gave an inhibition at 40 µM [6] of -14.9%.

With `Cc1cc(O)cc(O)c1C(=O)NCCCCCCCCCCCCOc1ccc(C(=N)NO)cc1` [8c] the EC50 ([1]; Trypanosoma brucei) was 8.4 ± 1.1 µM, the EC50 [2] was 9.1 ± 0.5 µM and the “SI (selectivity index) = CC50/EC50 (WT)” value [5] was 13. It also gave a CC50 [3] of 109 ± 1.6 µM, an IC50 [6] greater than 40 µM and an inhibition at 40 µM [6] of 44.8%.

With `Cc1cc(O)cc(O)c1C(=O)NCCCCCCCCCCCCCCOc1ccc(C(=N)NO)cc1` [8d] the EC50 ([1]; Trypanosoma brucei) was 29 ± 2.2 µM, the EC50 [2] was 27.1 ± 2.4 µM and the CC50 [3] was greater than 200 µM. It also gave an IC50 [6] greater than 40 µM and an inhibition at 40 µM [6] of -3.4%.

For `Cc1cc(O)cc(O)c1C(=O)NCCCCCCCCCCCCOc1ccc([N+](=O)[O-])cc1` [11c], the EC50 ([1]; Trypanosoma brucei) was 9.5 ± 0.5 µM, the EC50 [4] was 10.2 ± 0.7 µM and the melting point was 102.3 to 106.3 °C. For the same compound, the “SI (selectivity index) = CC50/EC50 (WT)” value [5] was greater than 10.5, the CC50 [3] was greater than 100 µM and the IC50 [6] was 30 ± 1.5 µM. For the same compound, the inhibition at 10 µM [6] was 53.8%.

With `Cc1cc(O)cc(O)c1C(=O)NCCCCCCCCCCCCOc1ccc(N)cc1` [12c] the EC50 ([1]; Trypanosoma brucei) was 20.3 ± 1.3 µM, the “RF (resistance factor relative to WT), AQP1-3 KO” value [4] was 1.5 and the EC50 [4] was 29.6 ± 2.2 µM. For the same compound, the “SI (selectivity index) = CC50/EC50 (WT)” value [5] was greater than 4.9 and the CC50 [3] was greater than 100 µM.

In the case of `Cc1cc(O)cc(O)c1C(=O)NCCCCCCCCCCCCOc1ccc(N=C2N(C(=O)OC(C)(C)C)CCN2C(=O)OC(C)(C)C)cc1` [14c], the EC50 ([1]; Trypanosoma brucei) is reported as 10.4 ± 0.7 µM, the “RF (resistance factor relative to WT), AQP1-3 KO” value [4] is reported as 1.5 and the EC50 [4] is reported as 15.7 ± 0.3 µM. For the same compound, the “SI (selectivity index) = CC50/EC50 (WT)” value [5] was greater than 9.6 and the CC50 [3] was greater than 100 µM.

With `C/C(=C\Cc1c(O)c(Cl)c(C)c(C=O)c1O)CC/C=C(\C)[C@@H]1CC(=O)C(C)(C)O1` [ascofuranone, reference compound] the inhibition at 40 µM [6] was 100%.

In the case of `Cc1cc(O)c(C(=O)CCCCCCCCCCCCCCCOc2ccc(C#N)cc2)c(O)c1` [compound 20], the “fold lower EC50 versus 7d” value ([1]; T. brucei WT EC50 of 20 versus 7d) is reported as 2.5 fold, the EC50 ([1]; Trypanosoma brucei) is reported as 5.8 ± 0.7 µM and the EC50 [4] is reported as 8.2 ± 0.9 µM. For the same compound, the “SI (selectivity index) = CC50/EC50 (WT)” value [5] was greater than 17.1, the CC50 [3] was greater than 100 µM and the “TAO inhibition (in words)” value [6] was “lack of TAO inhibition”. It also gave an IC50 [6] greater than 10 µM and an inhibition at 10 µM [6] of 13.4%.

`Cc1cc(O)cc(OC(=O)CCCCCCCCCCCCCCCOc2ccc(C#N)cc2)c1` [compound 21] showed an EC50 ([1]; Trypanosoma brucei) greater than 100 µM, an EC50 [4] greater than 100 µM and a CC50 [3] greater than 100 µM. It also gave an IC50 [6] greater than 10 µM and an inhibition at 10 µM [6] of 30%.

In the case of `N=C(N)c1ccc(/N=N/Nc2ccc(C(=N)N)cc2)cc1` [diminazene, reference compound], the EC50 ([1]; Trypanosoma brucei) is reported as 0.095 ± 0.011 µM, the “RF (resistance factor relative to WT), B48” value ([2]; EC50 B48 / EC50 WT) is reported as 1.1 and the EC50 [2] is reported as 0.107 ± 0.019 µM.

Compound `N=C(N)c1ccc(OCCCCCOc2ccc(C(=N)N)cc2)cc1` [pentamidine, reference compound] has an EC50 ([1]; Trypanosoma brucei) of 0.004 ± 0.001 µM, an EC50 [2] of 0.208 ± 0.021 µM and an EC50 [4] of 0.046 ± 0.003 µM.
